Results taken from patent US20240140991A1, “ANTIBIOTIC NATURAL PRODUCT ANALOGUES” (THE QUEEN'S UNIVERSITY OF BELFAST, priority 2021, published 2024).
≈ marks a conversion by molar mass, not a printed value. Positions of bridges follow the written chain, without caps; N, C: chain ends. Non-standard residues stand in square brackets, D forms with d. Residues, ends and D or L forms follow the SMILES beside them. ξ: configuration not given here. *: point of attachment. Octanoyl(7-Me) = CC(C)CCCCCC(=O)*; Palmitoyl = CCCCCCCCCCCCCCCC(=O)*; Hexanoyl(4ξ-Me) = CCC(C)CCC(=O)*; Lauroyl = CCCCCCCCCCCC(=O)*; dOrn = NCCC[C@@H](N)C(=O)O; Octanoyl = CCCCCCCC(=O)*; Orn = NCCC[C@H](N)C(=O)O; Dap = NC[C@H](N)C(=O)O; Alloc = C=CCOC(=O)*

What was measured:
E. coli = format: cell-based
Description: Minimum inhibitory concentration (MIC) was determined by broth microdilution according to CLSI guidelines. Blood agar plates were inoculated with glycerol stocks of Escherichia coli ATCC 25922, E. coli ATCC 25922 MCR-1, E. coli MCR-1 (clinical isolate from Utrecht Medical Center, NL), E. coli EQAS MCR-2 (clinical isolate from Wageningen University and Research, NL), Kiebsielia pneumoniae ATCC 11228, K. pneumoniae ATCC 13883, K. pneumonia 2048 (clinical isolate from Vrije Universiteit Amsterdam Medical Center, NL), K. pneumonia JS-123 (clinical isolate from Utrecht Medical Center, NL), Acinetobacter baumannii ATCC 17961, A. baumannil ATCC 17978, A. baumannii 2018-006 (clinical isolate from Rijksinstituut voor Volksgezondheid en Milieu, NL), A. baumannii MDR (clinical isolate from Vrije Universiteit Amsterdam Medical Center, NL), Pseudomonas aeruginosa ATCC 27853, P. aeruginosa PAO1, P. aeruginosa NRZ-03961 (Reference strain from Das Nationale Referenzzentrum für gramnegative Krankenhauserreger, DE), P. aeruginosa M-120 (clinical isolate from Leiden University Medical Center, NL) and Staphylococcus aureus USA300 (clinical isolate from Texas Children's Hospitalm, USA). E. coli 25922 MCR1 was grown on LB agar supplemented with kanamycin. The inoculated agar plates were then incubated for 16 hours at 37° C. Individually grown colonies were subsequently used to inoculate 3 mL aliquots of TSB that were then incubated at 37° C. with shaking at 220 rpm. In parallel, the compounds to be assessed were serially diluted with Mueller-Hinton broth (MHB) in polypropylene 96-well plates (50 μL in each well). Once the OD600 of the bacterial suspensions reached 0.5, the bacteria were diluted with MHB (final concentration 2×10^5 CFU mL^−1) and added to the microplates containing the test compounds (50 μL to each well, final volume: 100 μL). The well-plates were sealed with an adhesive membrane and after 16 hours of incubation at 37° C. with shaking at 220 rpm the wells were visually inspected for bacterial growth. MIC values were defined as the lowest concentration of the compound that prevented visible growth of bacteria.
MIC values were determined for the lipid analogues of brevicidine.
MIC values were determined for the position 9 analogues of linear brevicidine.

[1] = tested on: Escherichia coli ATCC 25922; format: cell-based; conditions: ATCC 25922
Summary of the method: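 Broth microdilution in MHB per CLSI; inoculum 2×10^5 CFU mL^−1 from log-phase TSB cultures at OD600 0.5. Plates incubated 16 hours at 37° C with shaking at 220 rpm. MIC is the lowest concentration preventing visible growth.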

| E. coli MIC (E. coli) [µg/mL] | Minimum inhibitory concentration (MIC) [1] [µg/mL] | SMILES |
| --- | --- | --- |
| 0.78 | – | CCC(C)CCC(=O)N[C@H](CC(N)=O)C(=O)N[C@H](Cc1ccc(O)cc1)C(=O)N[C@H](Cc1c[nH]c2ccccc12)C(=O)N[C@H](CCCN)C(=O)N[C@@H](CCCN)C(=O)NCC(=O)N[C@H](CCCN)C(=O)N[C@@H](Cc1c[nH]c2ccccc12)C(=O)N[C@@H](CCC(N)=O)C(=O)N[C@H](C(=O)NCC(N)=O)[C@@H](C)CC (stereo partly shown) [Und(9-Gln)-NH2] ({Hexanoyl(4ξ-Me)}-[dN][dY][dW][dOrn][Orn]G[dOrn]WQIG-NH2) |
| >100 | – | CCCCCCCCCCCCCCCC(=O)N[C@H](CC(N)=O)C(=O)N[C@H](Cc1ccc(O)cc1)C(=O)N[C@H](Cc1c[nH]c2ccccc12)C(=O)N[C@H](CCCN)C(=O)N[C@@H](CCCN)C(=O)NCC(=O)N[C@H](CCCN)C(=O)N[C@@H](Cc1c[nH]c2ccccc12)C(=O)N[C@@H]1C(=O)N[C@@H]([C@@H](C)CC)C(=O)NCC(=O)N[C@@H](CO)C(=O)O[C@@H]1C [Brev-C16] (Palmitoyl-[dN][dY][dW][dOrn][Orn]G[dOrn]WTIGS; ester 9-C) |
| 25 | – | CCCCCCCC(=O)N[C@H](CC(N)=O)C(=O)N[C@H](Cc1ccc(O)cc1)C(=O)N[C@H](Cc1c[nH]c2ccccc12)C(=O)N[C@H](CCCN)C(=O)N[C@@H](CCCN)C(=O)NCC(=O)N[C@H](CCCN)C(=O)N[C@@H](Cc1c[nH]c2ccccc12)C(=O)N[C@@H]1C(=O)N[C@@H]([C@@H](C)CC)C(=O)NCC(=O)N[C@@H](CO)C(=O)O[C@@H]1C [Brev-C8] (Octanoyl-[dN][dY][dW][dOrn][Orn]G[dOrn]WTIGS; ester 9-C) |
| 3.12 | – | CCCCCCCCCCCC(=O)N[C@H](CC(N)=O)C(=O)N[C@H](Cc1ccc(O)cc1)C(=O)N[C@H](Cc1c[nH]c2ccccc12)C(=O)N[C@H](CCCN)C(=O)N[C@@H](CCCN)C(=O)NCC(=O)N[C@H](CCCN)C(=O)N[C@@H](Cc1c[nH]c2ccccc12)C(=O)N[C@@H]1C(=O)N[C@@H]([C@@H](C)CC)C(=O)NCC(=O)N[C@@H](CO)C(=O)O[C@@H]1C [Brev-C12] (Lauroyl-[dN][dY][dW][dOrn][Orn]G[dOrn]WTIGS; ester 9-C) |
| – | 4 (≈ 2.6 µM) | CCCCCCCC(=O)N[C@H](CO)C(=O)N[C@H](Cc1ccc(O)cc1)C(=O)N[C@H](Cc1c[nH]c2ccccc12)C(=O)N[C@H](CCCN)C(=O)N[C@@H](CCCN)C(=O)NCC(=O)N[C@H](CCCN)C(=O)N[C@@H](Cc1c[nH]c2ccccc12)C(=O)N[C@@H](CO)C(=O)N[C@H](C(=O)N[C@@H](CC(N)=O)C(=O)NCC(N)=O)[C@@H](C)CC [ΔG13-Ser9-C8] (Octanoyl-[dS][dY][dW][dOrn][Orn]G[dOrn]WSING-NH2) |
| – | 8 to 16 | CC[C@H](C)[C@H](NC(=O)[C@@H](NC(=O)[C@H](Cc1c[nH]c2ccccc12)NC(=O)[C@@H](CCCN)NC(=O)CNC(=O)[C@H](CCCN)NC(=O)[C@@H](CCCN)NC(=O)[C@@H](Cc1c[nH]c2ccccc12)NC(=O)[C@@H](C)NC(=O)[C@@H](CO)NC(=O)CCCCCC(C)C)[C@@H](C)O)C(=O)N[C@@H](CC(N)=O)C(=O)NCC(=O)NCC(N)=O [Ala2 (D-Tyr→D-Ala), FA-sawoOGoWTINGG-CONH2] ({Octanoyl(7-Me)}-[dS][dA][dW][dOrn][Orn]G[dOrn]WTINGG-NH2) |
| – | 2 (≈ 1.29 µM) | CCC(C)CCC(=O)N[C@H](CO)C(=O)N[C@H](Cc1ccc(O)cc1)C(=O)N[C@H](Cc1c[nH]c2ccccc12)C(=O)N[C@H](CCCN)C(=O)N[C@@H](CCCN)C(=O)NCC(=O)N[C@H](CCCN)C(=O)N[C@@H](Cc1c[nH]c2ccccc12)C(=O)N[C@@H]1C(=O)N[C@@H]([C@@H](C)CC)C(=O)NCC(=O)N[C@H](CO)C(=O)NCC(=O)O[C@@H]1C (stereo partly shown) [Compound R2] ({Hexanoyl(4ξ-Me)}-[dS][dY][dW][dOrn][Orn]G[dOrn]WTIG[dS]G; ester 9-C; N-terminus assumed) |
| – | >64 | CC[C@H](C)[C@H](NC(=O)[C@@H](NC(=O)[C@H](C)NC(=O)[C@@H](CCCN)NC(=O)CNC(=O)[C@H](CCCN)NC(=O)[C@@H](CCCN)NC(=O)[C@@H](Cc1c[nH]c2ccccc12)NC(=O)[C@@H](Cc1ccc(O)cc1)NC(=O)[C@@H](CO)NC(=O)CCCCCC(C)C)[C@@H](C)O)C(=O)N[C@@H](CC(N)=O)C(=O)NCC(=O)NCC(N)=O [Ala8 (Trp→Ala), FA-sywoOGoATINGG-CONH2] ({Octanoyl(7-Me)}-[dS][dY][dW][dOrn][Orn]G[dOrn]ATINGG-NH2) |
| – | 2 (≈ 1.28 µM) | CCC(C)CCC(=O)N[C@H](CO)C(=O)N[C@H](Cc1ccc(O)cc1)C(=O)N[C@H](Cc1c[nH]c2ccccc12)C(=O)N[C@H](CCCN)C(=O)N[C@@H](CCCN)C(=O)NCC(=O)N[C@H](CCCN)C(=O)N[C@@H](Cc1c[nH]c2ccccc12)C(=O)N[C@@H]1C(=O)N[C@@H]([C@@H](C)CC)C(=O)NCC(=O)N[C@@H](CO)C(=O)N[C@@H](C)C(=O)O[C@@H]1C (stereo partly shown) [Compound R5] ({Hexanoyl(4ξ-Me)}-[dS][dY][dW][dOrn][Orn]G[dOrn]WTIGSA; ester 9-C; N-terminus assumed) |
| – | 4 (≈ 2.87 µM) | CC[C@H](C)[C@H](NC(=O)[C@@H](NC(=O)[C@H](Cc1c[nH]c2ccccc12)NC(=O)[C@@H](CCCN)NC(=O)CNC(=O)[C@H](CCCN)NC(=O)[C@@H](CCCN)NC(=O)[C@@H](Cc1c[nH]c2ccccc12)NC(=O)[C@@H](Cc1ccc(O)cc1)NC(=O)[C@@H](CO)NC(=O)CCCCCC(C)C)[C@@H](C)O)C(N)=O [ΔN11-G13, FA-sywoOGoWTI-CONH2] ({Octanoyl(7-Me)}-[dS][dY][dW][dOrn][Orn]G[dOrn]WTI-NH2) |
| – | 2 (≈ 1.26 µM) | CC[C@H](C)[C@H](NC(=O)[C@H](C)NC(=O)[C@H](Cc1c[nH]c2ccccc12)NC(=O)[C@@H](CCCN)NC(=O)CNC(=O)[C@H](CCCN)NC(=O)[C@@H](CCCN)NC(=O)[C@@H](Cc1c[nH]c2ccccc12)NC(=O)[C@@H](Cc1ccc(O)cc1)NC(=O)[C@@H](CO)NC(=O)CCCCCC(C)C)C(=O)N[C@@H](CC(N)=O)C(=O)NCC(=O)NCC(N)=O [Ala9 (Thr→Ala), FA-sywoOGoWAINGG-CONH2] ({Octanoyl(7-Me)}-[dS][dY][dW][dOrn][Orn]G[dOrn]WAINGG-NH2) |
| – | 2 (≈ 1.18 µM) | C=CCOC(=O)NC[C@H](NC(=O)[C@H](Cc1c[nH]c2ccccc12)NC(=O)[C@@H](CCCN)NC(=O)CNC(=O)[C@H](CCCN)NC(=O)[C@@H](CCCN)NC(=O)[C@@H](Cc1c[nH]c2ccccc12)NC(=O)[C@@H](Cc1ccc(O)cc1)NC(=O)[C@@H](CO)NC(=O)CCCCCC(C)C)C(=O)N[C@H](C(=O)N[C@@H](CC(N)=O)C(=O)NCC(=O)NCC(=O)O)[C@@H](C)CC [Dap(Alloc)9-COOH] ({Octanoyl(7-Me)}-[dS][dY][dW][dOrn][Orn]G[dOrn]W[Dap](Alloc)INGG-OH) |
| – | 4 (≈ 2.45 µM) | CC[C@H](C)[C@H](NC(=O)[C@H](CC(N)=O)NC(=O)[C@H](Cc1c[nH]c2ccccc12)NC(=O)[C@@H](CCCN)NC(=O)CNC(=O)[C@H](CCCN)NC(=O)[C@@H](CCCN)NC(=O)[C@@H](Cc1c[nH]c2ccccc12)NC(=O)[C@@H](Cc1ccc(O)cc1)NC(=O)[C@@H](CO)NC(=O)CCCCCC(C)C)C(=O)N[C@@H](CC(N)=O)C(=O)NCC(=O)NCC(N)=O [Asn9-CONH2] ({Octanoyl(7-Me)}-[dS][dY][dW][dOrn][Orn]G[dOrn]WNINGG-NH2) |
